For six molecules, TGI results are on record in PubChem BioAssay (NCI).

Some test systems named below: DLD-1 colon; DMS 114 small cell lung; HOP-18 NSCLC; KM20L2 colon; M19-MEL melanoma; XF 498 CNS; LXFL 529 NSCLC; RXF-631 renal; P388 leukemia; P388/ADR leukemia; SN12K1 renal.
What all share (assay): NCI tumour cell line growth inhibition, 48 h

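Grown in 96-well plates, cells were treated for 48 hours with each compound at five concentrations. Insufficient inhibition: endpoint recorded as highest concentration tested. Definition used: TGI = concentration required for complete inhibition of growth.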

Turning to `CC(=O)CC(=O)CCC(=O)O`, the TGI in the test with DLD-1 colon, in the test on DMS 114 small cell lung, in the test with HOP-18 NSCLC, in the test with KM20L2 colon, in the test on M19-MEL melanoma and in the test on XF 498 CNS was more than 100 µM throughout.
For the molecule `C#CCC1(C(=O)OCC)C(=O)c2ccccc2N(C)C1=O` (stereo unspecified), the TGI with DLD-1 colon, with DMS 114 small cell lung, in the test on HOP-18 NSCLC, in the test on KM20L2 colon, in the test with LXFL 529 NSCLC and in the test with M19-MEL melanoma was more than 100 µM each time. For the same molecule, the TGI was more than 100 µM with RXF-631 renal and 95.9 µM in the test with XF 498 CNS.
Take `O=C1C=CC(=O)c2c(O)c(N3CCN(CCOCCO)CC3)c(Cl)c(O)c21`: the TGI in the test on DLD-1 colon is 0.401 µM; with HOP-18 NSCLC, 2.73 µM; with KM20L2 colon it was 2.07 µM; with LXFL 529 NSCLC, 0.45 µM; in the test on M19-MEL melanoma, 1.08 µM; with XF 498 CNS, 1.88 µM.
As for `Cc1csc(NC(=NCCN2CCOCC2)Nc2nc(C)cs2)n1`, the TGI was more than 100 µM in the test on DLD-1 colon; more than 100 µM in the test on DMS 114 small cell lung; more than 100 µM in the test with HOP-18 NSCLC; more than 100 µM in the test with KM20L2 colon; more than 100 µM with M19-MEL melanoma; more than 31.6 µM in the test with P388 leukemia. Moreover, the TGI in the test on P388/ADR leukemia, in the test on SN12K1 renal and in the test with XF 498 CNS was more than 100 µM in each case.
Turning to `CC1(C2CCC3(C)OC3C2)CO1` (stereo unspecified), the TGI with DLD-1 colon, in the test with DMS 114 small cell lung, in the test on HOP-18 NSCLC, in the test with KM20L2 colon, with LXFL 529 NSCLC and with M19-MEL melanoma was more than 100 µM in each case. The TGI in the test with RXF-631 renal and in the test with XF 498 CNS was more than 100 µM throughout.
Consider `CC(=O)O[C@H]1CC[C@@]2(C)[C@H](CC[C@@H]3[C@@H]2CC[C@]2(C)[C@@H](c4ccc(=O)oc4)C[C@H]4O[C@]342)C1`, for which the TGI with DLD-1 colon is 7.34 µM; with DMS 114 small cell lung, 1.03 µM; with HOP-18 NSCLC, 9.72 µM; with KM20L2 colon it was 12.5 µM; with M19-MEL melanoma it was 7.17 µM; in the test with P388 leukemia, 125 µM. The TGI amounted to 125 µM with P388/ADR leukemia, 1.83 µM with SN12K1 renal and 3.27 µM in the test on XF 498 CNS.
